Columns and labels:
[1] = excess molar enthalpy (molar enthalpy of mixing); xn = mol fraction of the nth substance listed; conditions: 318.15 K, 101.3 kPa, Liquid
[2] = xn = mol fraction of the nth substance listed; conditions: 318.15 K, 101.3 kPa, Liquid

CCCCCOC(C)=O [pentyl ethanoate] + CCCCCCCCCCCCC
Conditions | excess molar enthalpy [kJ/mol] | excess molar volume [m3/mol]
[1], x1 = 0.0653 | 0.319 | –
[1], x1 = 0.1352 | 0.576 | –
[1], x1 = 0.2036 | 0.798 | –
[1], x1 = 0.2679 | 0.966 | –
[1], x1 = 0.326 | 1.08 | –
[1], x1 = 0.3795 | 1.16 | –
[1], x1 = 0.4178 | 1.2 | –
[1], x1 = 0.4635 | 1.23 | –
[1], x1 = 0.5035 | 1.23 | –
[1], x1 = 0.5376 | 1.21 | –
[1], x1 = 0.5674 | 1.19 | –
[1], x1 = 0.5679 | 1.17 | –
[1], x1 = 0.6418 | 1.09 | –
[1], x1 = 0.6886 | 1.01 | –
[1], x1 = 0.7385 | 0.908 | –
[1], x1 = 0.7897 | 0.792 | –
[1], x1 = 0.8433 | 0.639 | –
[1], x1 = 0.8966 | 0.453 | –
[1], x1 = 0.9506 | 0.243 | –
[2], x1 = 0.0955 | – | 3.07e-07
[2], x1 = 0.1575 | – | 4.63e-07
[2], x1 = 0.2323 | – | 6.22e-07
[2], x1 = 0.2961 | – | 7.29e-07
[2], x1 = 0.3517 | – | 7.96e-07
[2], x1 = 0.4152 | – | 8.59e-07
[2], x1 = 0.4689 | – | 8.87e-07
[2], x1 = 0.5228 | – | 8.91e-07
[2], x1 = 0.5724 | – | 8.76e-07
[2], x1 = 0.6226 | – | 8.35e-07
[2], x1 = 0.667 | – | 7.77e-07
[2], x1 = 0.7036 | – | 7.29e-07
[2], x1 = 0.7416 | – | 6.77e-07
[2], x1 = 0.8311 | – | 5.02e-07
[2], x1 = 0.8985 | – | 3.43e-07
[2], x1 = 0.9564 | – | 1.66e-07

CCCOC(C)=O [propyl ethanoate] + CCCCCCCCC
Conditions | excess molar enthalpy, [1] [kJ/mol] | excess molar volume, [2] [m3/mol]
x1 = 0.0866 | 0.456 | 3.76e-07
x1 = 0.1486 | – | 5.74e-07
x1 = 0.1795 | 0.798 | –
x1 = 0.2182 | – | 7.77e-07
x1 = 0.2657 | 1.07 | –
x1 = 0.2774 | – | 8.96e-07
x1 = 0.344 | 1.23 | –
x1 = 0.3451 | – | 9.99e-07
x1 = 0.4053 | – | 1.075e-06
x1 = 0.4115 | 1.33 | –
x1 = 0.4561 | – | 1.101e-06
x1 = 0.4797 | 1.38 | –
x1 = 0.5089 | – | 1.111e-06
x1 = 0.5358 | 1.37 | –
x1 = 0.5631 | – | 1.094e-06
x1 = 0.5815 | 1.34 | –
x1 = 0.6115 | – | 1.058e-06
x1 = 0.6251 | 1.29 | –
x1 = 0.6577 | – | 1.012e-06
x1 = 0.6703 | 1.2 | –
x1 = 0.7051 | – | 9.38e-07
x1 = 0.7182 | 1.1 | –
x1 = 0.7328 | – | 8.95e-07
x1 = 0.7662 | 0.974 | –
x1 = 0.8182 | 0.826 | –
x1 = 0.8254 | – | 6.64e-07
x1 = 0.8684 | 0.65 | –
x1 = 0.8966 | – | 4.35e-07
x1 = 0.9158 | 0.441 | –
x1 = 0.9496 | – | 2.29e-07
x1 = 0.9598 | 0.232 | –

CCCCCCCCCCCCCCCCC [heptadecane] + CCCCOC(C)=O
Conditions | excess molar enthalpy [kJ/mol] | excess molar volume [m3/mol]
[1], x2 = 0.0954 | 0.462 | –
[1], x2 = 0.1878 | 0.841 | –
[1], x2 = 0.2686 | 1.13 | –
[1], x2 = 0.3397 | 1.33 | –
[1], x2 = 0.4009 | 1.46 | –
[1], x2 = 0.4599 | 1.55 | –
[1], x2 = 0.5118 | 1.6 | –
[1], x2 = 0.5532 | 1.6 | –
[1], x2 = 0.5903 | 1.6 | –
[1], x2 = 0.5962 | 1.59 | –
[1], x2 = 0.6293 | 1.54 | –
[1], x2 = 0.6674 | 1.47 | –
[1], x2 = 0.7073 | 1.39 | –
[1], x2 = 0.7491 | 1.27 | –
[1], x2 = 0.7926 | 1.13 | –
[1], x2 = 0.8356 | 0.97 | –
[1], x2 = 0.8781 | 0.783 | –
[1], x2 = 0.9208 | 0.557 | –
[1], x2 = 0.9615 | 0.299 | –
[2], x2 = 0.0632 | – | 1.97e-07
[2], x2 = 0.104 | – | 3.47e-07
[2], x2 = 0.1206 | – | 3.85e-07
[2], x2 = 0.1949 | – | 5.9e-07
[2], x2 = 0.2755 | – | 7.8e-07
[2], x2 = 0.3444 | – | 9e-07
[2], x2 = 0.4115 | – | 9.79e-07
[2], x2 = 0.4696 | – | 1.048e-06
[2], x2 = 0.515 | – | 1.082e-06
[2], x2 = 0.5713 | – | 1.082e-06
[2], x2 = 0.6623 | – | 1.03e-06
[2], x2 = 0.7646 | – | 9.06e-07
[2], x2 = 0.842 | – | 6.95e-07
[2], x2 = 0.8976 | – | 5.2e-07
[2], x2 = 0.9384 | – | 3.47e-07
[2], x2 = 0.9717 | – | 1.79e-07

Source: the NIST ThermoML archive (doi:10.1016/j.jct.2003.11.008)
